According to article PMC11597202, “Novel Thiazole-Fused [4,5-g] or [5,4-g]Quinazolin-8-ones and Their Quinazoline Analogues: Synthesis and Biological Evaluation” (Pharmaceuticals, 2024):

Tests used:
[1] = In vitro cytotoxic assay, PC-3; format: cell-based; details: human, PC-3 cells (prostate cancer cell line); further: 0.1-25 µM tested
Procedure: (§1) Skin normal fibroblastic cells were purchased from Lonza (Basel, Switzerland). […] All culture media were supplemented by 10% of FBS, 1% of penicillin–streptomycin and 2 mM glutamine.
(§2) Chemicals were solubilized in DMSO at a concentration of 10 mM (stock solution) and diluted in culture medium to the desired final concentrations. […] Cells were plated in 96-well plates (4000 cells/well). Twenty-four hours after seeding, the cells were exposed to chemicals. […] Image acquisition and analysis were performed using a Cellomics ArrayScan VTI/HCS Reader (ThermoScientific, Les Ulis, France). The survival percentages were calculated as the percentage of cell number after compound treatment over cell number after DMSO treatment. The relative IC50 values were calculated using the curve fitting XLfit 5.5.0.5 (idbs) integrated in Microsoft Excel as an add-on.
(§3) 4.3.1. Cell culture. Skin normal fibroblastic cells are purchased from Lonza (Basel, Switzerland). Huh7- […]
(§4) from ATCC (American Type Culture Collection). […]
(§5) supplemented by 10% of FBS, 1% of penicillin-streptomycin and 2 mM glutamine.
(§6) 4.3.2. Cytotoxic assay. Chemicals were solubilized in DMSO at a concentration of 10 mM (stock solution) and diluted in culture medium to the desired final concentrations. The dose effect cytotoxic assays (IC50 determination) were performed by increasing the concentrations of each chemical (final well […]
(§7) Cells were plated in 96-well plates
(§8) (4000 cells/well). Twenty-four hours after seeding, cells were exposed to chemicals. After 48h of treatment, cells were washed in PBS and fixed in cooled 90% ethanol/5% acetic acid for 20 min and the […]
(§9) Image acquisition and analysis were performed using a Cellomics ArrayScan VTI/HCS Reader (ThermoScientific). The survival percentages were calculated as the percentage of cell number after compound treatment over cell number after DMSO treatment. The relative IC50 were calculated using the curve fitting XLfit 5.5.0.5 (idbs) integrated in Microsoft Excel as an add-on. The 4 Parameter Logistic Model or Sigmoidal Dose-Response Model describing the sigmoid-shaped response pattern was used (fit = (A+[(B-A)/(1+[(C/x)^D])]) where fit is the response and X is the tested concentration of the compound. The lower asymptote is A (also referred to as the bottom of the curve or lower plateau or the min) and the upper asymptote is B (also referred to as the top of the curve or upper plateau or the max). The slope of the linear part of the curve is described by the factor D. The parameter C is the concentration corresponding to the response midway between A and B. C is called “relative IC50” because it refers to the maximum response obtained by a […]
(§10) The results are represented as the mean ± standard error (SE) calculated from at least three independent experiments.

[2] = test system: seven tumor cell lines; assay: In vitro cytotoxic assay, whole panel of cancer cell lines; format: cell-based, human; details: 48 h; for IC50: Homo sapiens, lowest to highest IC50 among the seven cancer cell lines, read-out: IC50 span over the cancer cell lines
Procedure: as §1, §2, §3, §4, §5, §6, §7, §8, §9, §10

[3] = test system: DYRK1A; details: in Figure 3; cited from earlier work

| SMILES | IC50 at 48 h [1] | IC50 [2] | Cytotoxicity over the cell lines studied (in words) ([2]; 0.1-25 μM) | IC50 [3] |
| --- | --- | --- | --- | --- |
| COC(=N)c1nc2cc3c(=O)n(Cc4ccccc4)cnc3cc2s1 [Compound 6a, Methyl 7-benzyl-8-oxo-7,8-dihydrothiazolo[4,5-g]quinazoline-2-carbimidate] | 20 µM | 17 to 27 µM | – | – |
| COC(=N)c1nc2cc3ncn(Cc4ccccc4)c(=O)c3cc2s1 [Compound 6b, Methyl 7-benzyl-8-oxo-7,8-dihydrothiazolo[5,4-g]quinazoline-2-carbimidate] | 2 µM | 1 to 3 µM | – | – |
| COC(=N)c1nc2c(ccc3c(=O)n(Cc4ccccc4)cnc32)s1 [Compound 6c, Methyl 7-benzyl-6-oxo-6,7-dihydrothiazolo[5,4-h]quinazoline-2-carbimidate] | 8 µM | 3 to 13 µM | – | – |
| COC(=N)c1nc2ccc3c(=O)n(Cc4ccccc4)cnc3c2s1 [Compound 6d, Methyl 7-benzyl-6-oxo-6,7-dihydrothiazolo[4,5-h]quinazoline-2-carbimidate] | 10 µM | 2 to 11 µM | – | – |
| COC(=N)c1nc2cc3ncnc(Nc4ccc(OC)cc4F)c3cc2s1 [Compound 15b, Methyl 8-[(2-fluoro-4-methoxyphenyl)amino]thiazolo[5,4-g]quinazoline-2-carbimidate] | – | – | did not show detectable cytotoxicity | – |
| COC(=N)c1nc2ccc3ncn(Cc4ccccc4)c(=O)c3c2s1 [Compound I, methyl 8-benzyl-9-oxo-8,9-dihydrothiazolo[5,4-f]quinazoline-2-carbimidate, reference compound] | 20 µM | – | – | 0.3 µM |
| COC(=N)c1nc2ccc3ncnc(Nc4ccc(OC)cc4F)c3c2s1 [Compound II, methyl 9-[(2-fluoro-4-methoxyphenyl)amino]thiazolo[5,4-f]quinazoline-2-carbimidate, reference compound] | 4 µM | – | – | 0.00036 µM |
